In PMC6078987, “Molecular insights into antibiotic resistance - how a binding protein traps albicidin” (Nature Communications, 2018):
Converted amounts (≈) assume the structure as drawn. “And” between values parts separate entries of the source, which are not always exact repeats. Identical values can stand only once.

Tests used:
[1] = target: T1, AlbAS (Klebsiella oxytoca, UniProt Q8KRS7); test: 1H-15N HSQC NMR binding assay; conditions: 15N-labeled AlbAS, 1.5-fold excess of ligand
T1 sequence (Q8KRS7 1-221): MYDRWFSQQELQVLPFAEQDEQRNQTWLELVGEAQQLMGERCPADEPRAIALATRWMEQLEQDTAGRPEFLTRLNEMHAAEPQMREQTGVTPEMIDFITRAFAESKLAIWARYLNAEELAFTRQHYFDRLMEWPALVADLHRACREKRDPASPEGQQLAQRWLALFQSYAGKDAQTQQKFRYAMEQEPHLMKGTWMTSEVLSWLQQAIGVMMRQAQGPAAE
Procedure: For binding studies with albicidin and its derivatives, each ligand was dissolved in 100% d6-DMSO and added to ^15N-labeled AlbAS or ^2H, ^15N-labeled AlbAL in 50 mM sodium hydrogen phosphate (pH 6.8), 150 mM NaCl buffer (usually 0.24 mM AlbAS or AlbAL in 85% buffer, 5% d6-DMSO, and 10% D2O) yielding a 1.5-fold excess of the ligand. After incubation for 20 min at room temperature in the dark, the sample was centrifuged at 20 000 × g for 3 min and the supernatant was transferred to a 5 mm NMR tube. The AlbAS blank sample (Supplementary Figure 14) was measured in 100% buffer without addition of ligands and DMSO. Spectra were recorded on a Bruker Avance III 700 MHz NMR spectrometer (Bruker BioSpin, Rheinstetten, Germany) with a TXI probe head. Standard Bruker pulse sequences were used. 2D ^1H-^15N HSQC spectra were recorded at 298 K with acquisition times of 90 and 22 ms for the ^1H and ^15N dimension, respectively. The experiments were accumulated with ≥16 scans depending on protein sample concentration. 2D ^1H-^15N TROSY spectra were accumulated with 256 scans and acquisition times of 90 and 22 ms for the ^1H and ^15N dimension, respectively. Several AlbAS–albicidin samples were measured with the same result and a representative spectrum is given for the figures in the main manuscript and the SI. NMR experiments with AlbAS and albicidin analogs were conducted once with accumulation of ≥16 scans depending on protein concentration. For alignment of HSQC and TROSY spectra, the TROSY spectrum was corrected by 1/2 ^1JNH in both dimensions. […]

[2] = target: AlbASCTD (Klebsiella oxytoca, UniProt Q8KRS7); test: Fluorescence quenching binding assay with AlbASCTD; conditions: AlbASCTD 100 nM, n constrained to 1
Procedure: (§1) Fluorescence quenching measurements were performed by monitoring tryptophan fluorescence of AlbAS (20 nM), AlbAL (20 nM), AlbASNTD, and AlbASCTD (100 nM) on a FluoroMax 2 spectrometer from Horiba (Potsdam, Germany). The excitation wavelength was set to λexc = 280 nm. Emission spectra were recorded from λem = 290–450 nm with a scanning speed of 1 nm s^−1 and an integration time of 1 s. The excitation and emission slit widths were set to 8 and 4 nm, respectively. Proteins were solved in 50 mM sodium phosphate buffer with 150 mM NaCl and 0.01% DMSO at pH 6.8. All measurements were performed twice and the standard deviation is given for the Kd and the Hill factor n. Data evaluation was performed by integration of the emission band (318–410 nm for AlbAS, 316–412 nm for AlbAL, and 319–390 nm for AlbASNTD and AlbASCTD) for every titration step. The area under the curve (AUC) of the buffer blank (buffer with 0.01% DMSO) was subtracted from the measured titration data. The quenching factor was determined by subtraction of AUCs for each titration step from the AUC of the protein in the absence of ligand. For determination of the AlbAS– and AlbAL–albicidin Kd values, the data were fitted to Eq. (2).2 Y=Bmax[L]^n/Kdn+[L]^n where [L], n, and Bmax denote the total ligand concentration, the Hill coefficient, and the maximum binding capacity of the protein, respectively.

[3] = target: AlbASNTD (Klebsiella oxytoca, UniProt Q8KRS7); test: Fluorescence quenching binding assay with AlbASNTD; conditions: AlbASNTD 100 nM, n constrained to 1
Procedure: as §1

[4] = target: AlbA; set-up: method as in PMID 9493391; conditions: read-out: previously reported Kd; cited from earlier work
[5] = test system: Enterobacter cloacae; test: MIC assay, clinical isolates; assay type: cell-based
Procedure: (§2) The MIC assay was performed by Antiinfectives Intelligence GmbH (Rheinbach, Germany) using internationally standardized protocols and employing clinical isolates of K. oxytoca, K. pneumoniae, R. ornithologica, P. aeruginosa, A. baumannii and E. cloacae.

[6] = test system: K. oxytoca; test: MIC assay, clinical isolates; assay type: cell-based; conditions: Klebsiella oxytoca; four K. oxytoca strains
Procedure: as §2

[7] = test system: R. ornithinolytica; test: MIC assay, clinical isolates; assay type: cell-based
Procedure: as §2

[8] = test system: Klebsiella pneumoniae; test: MIC assay, clinical isolates; assay type: cell-based; conditions: seven Klebsiella pneumoniae strains
Procedure: as §2

[9] = test system: Acinetobacter baumanii; test: MIC assay, clinical isolates; assay type: cell-based; conditions: Acinetobacter baumannii
Procedure: as §2

[10] = test system: P. aeruginosa; test: MIC assay, clinical isolates; assay type: cell-based; conditions: Pseudomonas aeruginosa
Procedure: as §2

[11] = test system: Pseudomonas aeruginosa DSM 117; set-up: method as in PMID 17074789, PMID 25504839; conditions: cited from earlier work
[12] = test system: Escherichia coli; set-up: method as in PMID 17074789, PMID 25504839; conditions: cited from earlier work
[13] = target: T1, AlbAS; test: Fluorescence quenching binding assay (tryptophan fluorescence) with AlbAS
Procedure: as §1
For the determination of the Kd for AlbAS–compound 7 the data were fitted to Eq. (3).3 Y=Pt+L+Kd-Pt+L+Kd^2-4PtL/2 where Pt is the total protein concentration.

[14] = target: AlbAL (Klebsiella oxytoca, UniProt A0A9P0U153); test: Fluorescence quenching binding assay with AlbAL
Procedure: as §1

Sequence of AlbAL (A0A9P0U153 entry or part of it): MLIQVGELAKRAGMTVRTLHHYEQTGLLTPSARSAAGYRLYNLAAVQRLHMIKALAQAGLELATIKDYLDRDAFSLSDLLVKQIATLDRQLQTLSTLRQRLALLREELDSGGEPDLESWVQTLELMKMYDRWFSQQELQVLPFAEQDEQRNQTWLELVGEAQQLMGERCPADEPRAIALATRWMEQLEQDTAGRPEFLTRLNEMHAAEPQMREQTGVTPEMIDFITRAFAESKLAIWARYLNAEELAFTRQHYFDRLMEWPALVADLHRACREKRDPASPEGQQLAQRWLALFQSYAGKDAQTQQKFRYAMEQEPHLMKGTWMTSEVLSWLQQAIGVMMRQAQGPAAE

COc1c(NC(=O)c2ccc(NC(=O)c3ccc(NC(=O)[C@H](CC#N)NC(=O)c4ccc(NC(=O)/C(C)=C/c5ccc(O)cc5)cc4)cc3)c(OC)c2O)ccc(C(=O)O)c1O [albicidin]
binding to AlbAS by HSQC signal pattern (in words) [1]: strong ligand binding in the nM–pM range
Kd [2]: 600 ± 100 nM
Kd [3]: 3400 ± 200 nM
Kd [4]: 64 nM
MIC [5]: ≥ 64 µg/mL
MIC [6]: ≥ 64 µg/mL
MIC [7]: ≥ 64 µg/mL
MIC [8]: ≥ 64 µg/mL
MIC [9]: ≥ 64 µg/mL
MIC [10]: ≥ 64 µg/mL
MIC [11]: 1.0 µg/mL (≈ 1.19 µM)
MIC [12]: 0.063 µg/mL (≈ 0.0747 µM)
Hill coefficient, n ([13]; AlbAS 20 nM, fluorescence quenching): 3.0 ± 0.5
Kd ([13]; AlbAS 20 nM, fluorescence quenching, pH 6.8): ≤ 5.6 nM and 5.6 nM
quenching of AlbAS emission ([13]; maximal quenching by ligand): 100%
Kd [14]: 7.4 ± 0.9 nM
Hill coefficient, n ([14]; AlbAL 20 nM, fluorescence quenching): 2.0 ± 0.2
